{
  "source": "ChEMBL document CHEMBL1140598",
  "about": "“A review of anti-infective and anti-inflammatory chalcones” (Eur J Med Chem, 2007)",
  "key": {"[1]": {"tested_on": "Neutrophil", "experiment": "Inhibition of fMLP/CB-stimulated release of beta-glucuronidase in rat neutrophils", "assay_type": "functional, cell-based"}, "[2]": {"tested_on": "Neutrophil", "experiment": "Inhibition of fMLP/CB-stimulated release of lysozyme in rat neutrophils", "assay_type": "functional, cell-based"}, "[3]": {"tested_on": "Plasmodium falciparum", "experiment": "Antiplasmodial activity against chloroquine-sensitive Plasmodium falciparum 3D7 by [3H]hypoxanthine incorporation", "assay_type": "functional, organism-based"}, "[4]": {"tested_on": "Plasmodium falciparum", "experiment": "Antiplasmodial activity against chloroquine-sensitive Plasmodium falciparum Dd2 by [3H]hypoxanthine incorporation", "assay_type": "functional, organism-based"}, "[5]": {"experiment": "Inhibition of Leishmania donovani solubilized fumarate reductase"}, "[6]": {"tested_on": "Staphylococcus aureus", "experiment": "Antibacterial activity against Staphylococcus aureus", "assay_type": "functional, organism-based"}, "[7]": {"tested_on": "Staphylococcus epidermidis", "experiment": "Antibacterial activity against Staphylococcus epidermidis", "assay_type": "functional"}, "[8]": {"tested_on": "Staphylococcus haemolyticus", "experiment": "Antibacterial activity against Staphylococcus haemolyticus", "assay_type": "functional"}, "[9]": {"tested_on": "Mycobacterium tuberculosis", "experiment": "Antibacterial activity against Mycobacterium tuberculosis H37Rv at 12.5 ug/mL", "assay_type": "functional"}, "[10]": {"tested_on": "Plasmodium falciparum", "experiment": "Inhibition of ring to schizont stage maturation in Plasmodium falciparum NF54 at 10 ug/mL", "assay_type": "functional"}, "[11]": {"tested_on": "Plasmodium falciparum", "experiment": "Inhibition of ring to schizont stage maturation in Plasmodium falciparum NF54 at 50 ug/mL", "assay_type": "functional"}, "[12]": {"tested_on": "Plasmodium falciparum", "experiment": "Antimalarial activity against chloroquine-resistant Plasmodium falciparum K1 by [3H]hypoxanthine incorporation", "assay_type": "functional, organism-based"}, "[13]": {"tested_on": "Plasmodium falciparum", "experiment": "Antiplasmodial activity against chloroquine-sensitive Plasmodium falciparum D6", "assay_type": "functional, organism-based"}, "[14]": {"tested_on": "Plasmodium falciparum", "experiment": "Antiplasmodial activity against chloroquine-resistant Plasmodium falciparum W2", "assay_type": "functional, organism-based"}, "[15]": {"tested_on": "Colletotrichum truncatum", "experiment": "Antifungal activity against Colletotrichum capsici", "assay_type": "functional"}, "[16]": {"tested_on": "Enterococcus faecium", "experiment": "Antibacterial activity against Enterococcus faecium", "assay_type": "functional"}, "[17]": {"tested_on": "Escherichia coli", "experiment": "Antibacterial activity against Escherichia coli", "assay_type": "functional"}, "[18]": {"tested_on": "Staphylococcus aureus", "experiment": "Antibacterial activity against methicillin-resistant Staphylococcus aureus", "assay_type": "functional, organism-based"}, "[19]": {"tested_on": "Plasmodium falciparum", "experiment": "Antimalarial activity against Plasmodium falciparum", "assay_type": "functional, organism-based"}, "[20]": {"tested_on": "Rhizoctonia solani", "experiment": "Antifungal activity against Rhizoctonia solani", "assay_type": "functional"}, "[21]": {"tested_on": "Fusarium oxysporum", "experiment": "Antifungal activity against Fusarium oxysporum", "assay_type": "functional"}, "[22]": {"biological_target": "Protease (Human immunodeficiency virus 1) (UniProt Q9YQ12)", "sequence (Q9YQ12 as listed by the source)": "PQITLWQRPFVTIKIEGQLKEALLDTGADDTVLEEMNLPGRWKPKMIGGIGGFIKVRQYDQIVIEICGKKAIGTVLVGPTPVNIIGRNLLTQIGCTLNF", "experiment": "Inhibition of HIV1 protease at 50 ug/mL"}, "[23]": {"tested_on": "Trypanosoma cruzi", "experiment": "Growth inhibition of Trypanosoma cruzi epimastigotes", "assay_type": "functional, organism-based"}, "[24]": {"tested_on": "Microsporum canis", "experiment": "Antifungal activity against Microsporum canis", "assay_type": "functional"}, "[25]": {"tested_on": "Microsporum", "experiment": "Antifungal activity against Microsporum gypseum", "assay_type": "functional"}, "[26]": {"tested_on": "Trichophyton benhamiae", "experiment": "Antifungal activity against Trichophyton mentagrophytes", "assay_type": "functional, Arthroderma benhamiae"}, "[27]": {"tested_on": "Trichophyton rubrum", "experiment": "Antifungal activity against Trichophyton rubrum", "assay_type": "functional"}, "[28]": {"tested_on": "Epidermophyton floccosum", "experiment": "Antifungal activity against Epidermophyton floccosum", "assay_type": "functional"}, "[29]": {"tested_on": "Leishmania major", "experiment": "Growth inhibition of Leishmania major promastigotes assessed as [3H]thymidine incorporation", "assay_type": "functional, organism-based"}, "[30]": {"tested_on": "Leishmania donovani", "experiment": "Inhibition of Leishmania donovani amastigotes in human monocyte-derived macrophages", "assay_type": "functional, organism-based"}, "[31]": {"tested_on": "RAW", "experiment": "Inhibition of nitric oxide production in LPS-stimulated mouse RAW 264.7 cells at 10 uM", "assay_type": "functional"}, "[32]": {"tested_on": "RAW", "experiment": "Inhibition of prostaglandin E2 production in LPS-stimulated mouse RAW 264.7 cells at 10 uM", "assay_type": "functional"}, "[33]": {"tested_on": "Candida albicans", "experiment": "Antifungal activity against Candida albicans", "assay_type": "functional, organism-based"}, "[34]": {"tested_on": "Cryptococcus neoformans", "experiment": "Antifungal activity against Cryptococcus neoformans", "assay_type": "functional, organism-based"}, "[35]": {"tested_on": "RAW", "experiment": "Inhibition of nitric oxide production in LPS-stimulated mouse RAW 264.7 cells", "assay_type": "functional, cell-based"}},
  "data": [
    {"molecule": "O=C(/C=C/c1ccccc1O)c1ccccc1O", "values": [
      {"measurement": "IC50", "setting": "[1]", "value": 1.6, "unit": "µM"},
      {"measurement": "IC50", "setting": "[2]", "value": 1.4, "unit": "µM"}
    ]},
    {"molecule": "CCCCOc1ccc(C(=O)/C=C/c2ccc(OC)cc2OC)cc1", "values": [
      {"measurement": "IC50", "setting": "[3]", "value": 8.9, "unit": "µM"},
      {"measurement": "IC50", "setting": "[4]", "value": 14.8, "unit": "µM"},
      {"measurement": "IC50", "setting": "[5]", "value": 118, "unit": "µM"}
    ]},
    {"molecule": "O=C(/C=C/c1ccc(O)cc1)c1ccc(O)cc1O", "note": "[ISOLIQUIRITIGENIN]", "values": [
      {"measurement": "MIC", "setting": "[6]", "value": 250, "unit": "µg/mL"},
      {"measurement": "MIC", "setting": "[7]", "value": 250, "unit": "µg/mL"},
      {"measurement": "MIC", "setting": "[8]", "value": 250, "unit": "µg/mL"}
    ]},
    {"molecule": "O=C(/C=C/c1ccccc1)c1ccccc1O", "note": "[2'-HYDROXYCHALCONE]", "values": [
      {"measurement": "inhibition at 12.5 µg/mL", "setting": "[9]", "value": 61, "unit": "%"}
    ]},
    {"molecule": "COc1cc(/C=C/C(=O)c2ccc(O)c(CC=C(C)C)c2O)ccc1O", "note": "[CROTAORIXIN]", "values": [
      {"measurement": "inhibition at 10 µg/mL", "setting": "[10]", "value": 100, "unit": "%"},
      {"measurement": "inhibition at 50 µg/mL", "setting": "[11]", "value": 100, "unit": "%"}
    ]},
    {"molecule": "COc1ccc(C(=O)/C=C/c2ccc(C(F)(F)F)cc2)c(OC)c1", "values": [
      {"measurement": "IC50", "setting": "[12]", "value": 6.5, "unit": "µM"}
    ]},
    {"molecule": "CC(C)=CCc1cc(/C=C/C(=O)c2ccc(O)cc2O)cc(O)c1O", "note": "[5'-PRENYLBUTEIN]", "values": [
      {"measurement": "IC50", "setting": "[13]", "value": 10.3, "unit": "µM"},
      {"measurement": "IC50", "setting": "[14]", "value": 10.3, "unit": "µM"}
    ]},
    {"molecule": "Cc1ccc(/C=C/C(=O)c2ccc(C)cc2)cc1", "note": "[4,4'-DIMETHYLCHALCONE]", "values": [
      {"measurement": "MIC", "setting": "[15]", "value": 6.25, "unit": "µg/mL"}
    ]},
    {"molecule": "Cc1cc(C)cc(-c2ccc(N3CCNCC3)c(/C=C/C(=O)c3cccc(NCCN(C)C)c3)c2)c1", "values": [
      {"measurement": "MIC", "setting": "[6]", "value": 2, "unit": "µM"},
      {"measurement": "MIC", "setting": "[16]", "value": 5, "unit": "µM"},
      {"measurement": "MIC", "setting": "[17]", "value": 5, "unit": "µM"},
      {"measurement": "MIC", "setting": "[18]", "value": 2, "unit": "µM"}
    ]},
    {"molecule": "O=C(/C=C/c1ccc(Cl)c(Cl)c1)c1ccc(O)cc1", "values": [
      {"measurement": "IC50", "setting": "[12]", "value": 20, "unit": "µM"}
    ]},
    {"molecule": "O=C(Nc1ccc(Cl)cc1)Nc1ccc(C(=O)/C=C/c2ccc(Cl)cc2Cl)cc1", "values": [
      {"measurement": "IC50", "setting": "[19]", "value": 1.76, "unit": "µM"}
    ]},
    {"molecule": "O=C(/C(Br)=C(\\Br)c1cccc([N+](=O)[O-])c1)c1cccc([N+](=O)[O-])c1", "values": [
      {"measurement": "MIC", "setting": "[20]", "value": 6.25, "unit": "µg/mL"},
      {"measurement": "MIC", "setting": "[21]", "value": 6.25, "unit": "µg/mL"},
      {"measurement": "MIC", "setting": "[15]", "value": 6.25, "unit": "µg/mL"}
    ]},
    {"molecule": "CCc1ccc(/C=C/C(=O)c2ccc(OC)cc2OC)cc1", "values": [
      {"measurement": "IC50", "setting": "[12]", "value": 6.5, "unit": "µM"}
    ]},
    {"molecule": "O=C(/C=C/c1ccc(O)c(O)c1)c1ccc(O)cc1O", "values": [
      {"measurement": "inhibition", "setting": "[22]", "value": 50, "unit": "%"}
    ]},
    {"molecule": "COc1ccc(C(=O)/C=C/c2ccc(C(F)(F)F)cc2)c(OC)c1OC", "values": [
      {"measurement": "IC50", "setting": "[12]", "value": 6.5, "unit": "µM"}
    ]},
    {"molecule": "O=C(/C=C/c1ccc(Cl)cc1)c1ccccc1", "note": "[4-CHLORO CHALCONE]", "values": [
      {"measurement": "IC50", "setting": "[23]", "value": 21.9, "unit": "µM"}
    ]},
    {"molecule": "COc1cccc(/C=C/C(=O)c2ccc(Br)cc2)c1", "values": [
      {"measurement": "MIC", "setting": "[24]", "value": 25, "unit": "µg/mL"},
      {"measurement": "MIC", "setting": "[25]", "value": 1.5, "unit": "µg/mL"},
      {"measurement": "MIC", "setting": "[26]", "value": 3, "unit": "µg/mL"},
      {"measurement": "MIC", "setting": "[27]", "value": 3, "unit": "µg/mL"},
      {"measurement": "MIC", "setting": "[28]", "value": 0.5, "unit": "µg/mL"}
    ]},
    {"molecule": "C=CC(C)(C)c1cc(/C=C/C(=O)c2ccc(O)cc2)c(OC)cc1Cl", "values": [
      {"measurement": "MIC", "setting": "[6]", "value": 10, "unit": "µg/mL"}
    ]},
    {"molecule": "C=CCOc1ccc(C(=O)/C=C/c2ccc(OC)cc2OC)cc1", "values": [
      {"measurement": "IC50", "setting": "[5]", "value": 153, "unit": "µM"},
      {"measurement": "IC50", "setting": "[29]", "value": 4, "unit": "µM"},
      {"measurement": "IC50", "setting": "[30]", "value": 0.65, "unit": "µM"}
    ]},
    {"molecule": "O=C(/C=C/c1cccc(Cl)c1)c1ccccc1O", "values": [
      {"measurement": "inhibition at 12.5 µg/mL", "setting": "[9]", "value": 90, "unit": "%"}
    ]},
    {"molecule": "CN(C)c1ccc(/C=C/C(=O)c2ccc(O)cc2)cc1", "values": [
      {"measurement": "IC50", "setting": "[12]", "value": 20, "unit": "µM"}
    ]},
    {"molecule": "COc1ccc(C(=O)/C=C/c2ccccc2)c(O)c1", "values": [
      {"measurement": "inhibition at 12.5 µg/mL", "setting": "[9]", "value": 78, "unit": "%"}
    ]},
    {"molecule": "COc1cc(OC)c(/C=C/C(=O)c2ccccc2C(F)(F)F)c(OC)c1", "values": [
      {"measurement": "inhibition at 10 µM", "setting": "[31]", "value": 76.3, "unit": "%"},
      {"measurement": "inhibition at 10 µM", "setting": "[32]", "value": 76.3, "unit": "%"}
    ]},
    {"molecule": "CC(C)=CCc1c(O)ccc(C(=O)/C=C/c2ccc(O)cc2)c1O", "note": "[ISOBAVACHALCONE]", "values": [
      {"measurement": "IC50", "setting": "[33]", "value": 3, "unit": "µg/mL"},
      {"measurement": "IC50", "setting": "[34]", "value": 7, "unit": "µg/mL"}
    ]},
    {"molecule": "C=C(C)C(O)Cc1c(O)ccc(C(=O)/C=C/c2ccc(O)cc2)c1O", "note": "(configuration not stated)", "values": [
      {"measurement": "IC50", "setting": "[33]", "value": 15, "unit": "µg/mL"},
      {"measurement": "IC50", "setting": "[34]", "value": 7, "unit": "µg/mL"}
    ]},
    {"molecule": "COc1cccc(OC)c1C(=O)/C=C/c1ccc(N(C)C)cc1", "values": [
      {"measurement": "IC50", "setting": "[35]", "value": 0.6, "unit": "µM"}
    ]}
  ]
}
